From PubChem BioAssay AID2060901 (Molecular Pharmacology Branch, DTP, NCI, 2025)

Test system: 422866-222-R5-J1-PDC complex spheroids viability
Assay: Anticancer human tumor 422866-222-R5-J1-PDC patient-derived pancreatic adenocarcinoma cell line growth inhibition [RAS]
Settings: for viability, T/C: stronger effect = lower value; for IC50: curve of first compound; active = viability on the fitted dose curve at most 10% of control; inactive = the rest
Description: RAS pathway inhibitors in Combinations in Complex Spheroids
A high-throughput screen of multi-cell type tumor spheroids was designed to identify active combinations of RAS pathway inhibitors and targeted small molecules. Complex spheroids include a stromal component modeled by human endothelial cells (HUVEC) and fibroblasts modeled by human mesenchymal stem cells (MSCs). The concentration ranges selected for each drug and investigational agent were based upon clinically achievable concentrations if the clinical Cmax of the agent was known.
Compounds. The drugs and investigational agents: abemaciclib (NSC768073), cobimetinib (NSC768068), divarasib (GDC6063, NSC841802), docetaxel (NSC628503), GDC-1971 (RLY-1971, NSC841576), gemcitabine (NSC613327), inavolisib (NSC800729), ipatasertib (NSC767898), KB-0742 (NSC834161), MRTX-1133 (NSC836407), osimertinib (NSC779217), RMC-4630 (NSC839698), RMC-6236 (NSC851965), RMC-6291 (NSC852671), Ro-3306 (NSC812927), sapanisertib (NSC764658), SN-38 (NSC673596), staurosporine (NSC755774), SY5609 (NSC837396), and tovorafenib (DAY101, NSC766906), were obtained from the National Cancer Institute (NCI) Developmental Therapeutics Program Chemical Repository. The FDA-approved anticancer drug set is available from the NCI Developmental Therapeutics Program. […] The stock solutions were prepared in dimethyl sulfoxide (DMSO, Sigma-Aldrich, St. Louis, MO, cat. D2650) at 800-fold the tested concentration and stored at -70 degrees C prior to their use. All drugs and investigational agents were tested over a range starting from a high concentration at or near the clinical Cmax and decreasing in half-log increments. If the clinical Cmax for an agent had not been determined, the highest concentration tested was 10 microM.
Cell Culture. All cells were maintained in an incubator at 37 degrees C and 5% CO2 with 95% humidity. The PDC lines were cultured according to standard operating procedures established by the NCI PDMR. All PDCs were thawed and cultured in Matrigel-coated flasks prepared with a working solution of 1X Ham's F-12 nutrient mix, without supplementation (Invitrogen, Waltham, MA, cat. 11765054), 100 U/mL penicillin-streptomycin (Invitrogen, cat. 15140122), and 2.5% Matrigel (Corning Inc., Corning, NY, cat. 354248) for the first three passages. The 362531-283-R-J2-PDC and 782815-120-R-J1-PDC lines were cultured in 6C/Colon 1B media, which includes advanced DMEM/F-12 (Thermo Fisher Scientific, cat. 12634028), 10 mM HEPES (Thermo Fisher Scientific, cat. 15630080), 1X GlutaMAX supplement (Thermo Fisher Scientific, cat. 35050061), 0.1 mg/mL primocin (InvivoGen, San Diego, CA, cat. ant-pm-2), 10% defined fetal bovine serum, heat inactivated (HyClone Laboratories Inc., Logan, UT, cat. SH30070.03HI), 50% L-WRN conditioned media (ATCC, cat. CRL-3276), 1.25 mM N-Acetyl-L-cysteine (Sigma-Aldrich, cat. A9165), 10 mM nicotinamide (Sigma-Aldrich, cat. N0636), 1X B-27 supplement (Thermo Fisher Scientific, cat. 17504044), 1X N-2 supplement (Thermo Fisher Scientific, cat. 17502048), 50 ng/mL human EGF (Thermo Fisher Scientific, cat. PHG0311), and 10 microM Y-27632 dihydrochloride (Tocris Bioscience, cat. 1254). The K12877-001-R-J1-PDC line was cultured in 6I media, which includes all 6C/Colon 1B media plus 10 ng/mL human FGF-10 (PeproTech, cat. 100-26), 1 ng/mL human FGF-2 (PeproTech, cat. 100-18B), 1 µM prostaglandin E2 (Tocris Bioscience, cat. 2296), […] hydrocortisone (Sigma-Aldrich, cat. H4001), and […] bovine insulin (Sigma-Aldrich, cat. I6634). The K86415-001-R-J1-PDC line was cultured in 6D media, which includes all 6C/Colon 1B media components minus the L-WRN conditioned media. The 485176-168-R4-J1-PDC was cultured in PANC media, which includes all 6C/Colon 1B media plus 100 ng/mL human FGF-10 (PeproTech, cat. 100-26), 500 nM SB-431542 (Selleckchem, cat. S1067), and 10 nM gastrin (Tocris Bioscience, cat. 3006). […]

[1] = second compound 0.0316 µM, first compound 0.00316 µM
[2] = second compound 0.0316 µM, first compound 0.01 µM
[3] = second compound 0.0316 µM, first compound 0.0316 µM
[4] = second compound 0.0316 µM, first compound 0.1 µM
[5] = second compound 0.0316 µM, first compound 0.316 µM
[6] = second compound 0.0316 µM, first compound 1 µM
[7] = second compound 0.1 µM, first compound 0.00316 µM
[8] = second compound 0.1 µM, first compound 0.01 µM
[9] = second compound 0.1 µM, first compound 0.0316 µM
[10] = second compound 0.1 µM, first compound 0.1 µM
[11] = second compound 0.1 µM, first compound 0.316 µM
[12] = second compound 0.1 µM, first compound 1 µM
[13] = second compound 0.316 µM, first compound 0.00316 µM
[14] = second compound 0.316 µM, first compound 0.01 µM
[15] = second compound 0.316 µM, first compound 0.0316 µM
[16] = second compound 0.316 µM, first compound 0.1 µM
[17] = second compound 0.316 µM, first compound 0.316 µM
[18] = second compound 0.316 µM, first compound 1 µM
[19] = second compound 1 µM, first compound 0.00316 µM
[20] = second compound 1 µM, first compound 0.01 µM
[21] = second compound 1 µM, first compound 0.0316 µM
[22] = second compound 1 µM, first compound 0.1 µM
[23] = second compound 1 µM, first compound 0.316 µM
[24] = second compound 1 µM, first compound 1 µM
[25] = second compound 3.16 µM, first compound 0.00316 µM
[26] = second compound 3.16 µM, first compound 0.01 µM
[27] = second compound 3.16 µM, first compound 0.0316 µM
[28] = second compound 3.16 µM, first compound 0.1 µM
[29] = second compound 3.16 µM, first compound 0.316 µM
[30] = second compound 3.16 µM, first compound 1 µM
[31] = second compound 10 µM, first compound 0.00316 µM
[32] = second compound 10 µM, first compound 0.01 µM
[33] = second compound 10 µM, first compound 0.0316 µM
[34] = second compound 10 µM, first compound 0.1 µM
[35] = second compound 10 µM, first compound 0.316 µM
[36] = second compound 10 µM, first compound 1 µM

Cc1nc(N2CCC3(CC2)COC(C)C3N)c(CO)nc1Sc1ccnc(N)c1Cl (stereo unspecified)
inactive: viability, T/C (compound 0.1 µM) 65% [middle of 4 runs] | viability, T/C (compound 0.316 µM) 51% [middle of 4 runs] | viability, T/C (compound 1 µM) 52.8% [middle of 4 runs] | viability, T/C (compound 3.16 µM) 41.1% [middle of 4 runs] | viability, T/C (compound 10 µM) 43.5% [middle of 4 runs]

C=CC(=O)Nc1cc(Nc2nccc(-c3cn(C)c4ccccc34)n2)c(OC)cc1N(C)CCN(C)C + C#Cc1c(F)ccc2cc(O)cc(-c3ncc4c(N5CC6CCC(C5)N6)nc(OCC56CCCN5CC(F)C6)nc4c3F)c12
inactive: viability, T/C [1] 83.7% | viability, T/C [2] 97.5% | viability, T/C [3] 85.8% | viability, T/C [4] 74% | viability, T/C [5] 66% | viability, T/C [6] 57.7% | viability, T/C [7] 74.5% | viability, T/C [8] 91.4% | viability, T/C [9] 68.9% | viability, T/C [10] 58.2% | viability, T/C [11] 62.6% | viability, T/C [12] 50.2% | viability, T/C [13] 72.4% | viability, T/C [14] 69.8% | viability, T/C [15] 47.7% | viability, T/C [16] 56.5% | viability, T/C [17] 42.2% | viability, T/C [18] 40.2% | viability, T/C [19] 50.9% | viability, T/C [20] 44.5% | viability, T/C [21] 34.1% | viability, T/C [22] 35.9% | viability, T/C [23] 33.8% | viability, T/C [24] 31.6% | viability, T/C [25] 33.6% | viability, T/C [26] 32.9% | viability, T/C [27] 27.6% | viability, T/C [28] 23.7% | viability, T/C [29] 26.4% | viability, T/C [30] 22.4% | viability, T/C [31] 23.2% | viability, T/C [32] 20.7% | viability, T/C [33] 22.2% | viability, T/C [34] 22.1% | viability, T/C [35] 19.9% | viability, T/C [36] 19.6%
94.2 nM: IC50 (second compound 0.316 µM)
< 3.16 nM: IC50 (second compound 1 µM) | IC50 (second compound 3.16 µM) | IC50 (second compound 10 µM)
> 1000 nM: IC50 (second compound 0.0316 µM) | IC50 (second compound 0.1 µM)

CC(Nc1ccc2c(c1)OCCn1cc(N3C(=O)OCC3C(F)F)nc1-2)C(N)=O (stereo unspecified) + C#Cc1c(F)ccc2cc(O)cc(-c3ncc4c(N5CC6CCC(C5)N6)nc(OCC56CCCN5CC(F)C6)nc4c3F)c12
inactive: viability, T/C [3] 77% | viability, T/C [4] 46.7% | viability, T/C [5] 33.1% | viability, T/C [6] 37.9% | viability, T/C (second compound 0.0316 µM, first compound 3.16 µM) 26.1% | viability, T/C (second compound 0.0316 µM, first compound 10 µM) 22.2% | viability, T/C [9] 73.3% | viability, T/C [10] 44.8% | viability, T/C [11] 30.9% | viability, T/C [12] 24.7% | viability, T/C (second compound 0.1 µM, first compound 3.16 µM) 23% | viability, T/C (second compound 0.1 µM, first compound 10 µM) 19.9% | viability, T/C [15] 50.6% | viability, T/C [16] 38.6% | viability, T/C [17] 29.8% | viability, T/C [18] 21.6% | viability, T/C (second compound 0.316 µM, first compound 3.16 µM) 19% | viability, T/C (second compound 0.316 µM, first compound 10 µM) 18.7% | viability, T/C [21] 37.3% | viability, T/C [22] 26.5% | viability, T/C [23] 22.5% | viability, T/C [24] 14.5% | viability, T/C (second compound 1 µM, first compound 3.16 µM) 13.6% | viability, T/C (second compound 1 µM, first compound 10 µM) 12.7% | viability, T/C [27] 22.2% | viability, T/C [28] 19.2% | viability, T/C [29] 13% | viability, T/C [30] 10.5% | viability, T/C [33] 13.7% | viability, T/C [34] 11.8%
33.4 nM: IC50 (second compound 0.316 µM)
active: viability, T/C (second compound 3.16 µM, first compound 3.16 µM) 9.41% | viability, T/C (second compound 3.16 µM, first compound 10 µM) 9.38% | viability, T/C [35] 8.74% | viability, T/C [36] 6.04% | viability, T/C (second compound 10 µM, first compound 3.16 µM) 7.1% | viability, T/C (second compound 10 µM, first compound 10 µM) 7.04%
93.5 nM: IC50 (second compound 0.0316 µM)
< 31.6 nM: IC50 (second compound 1 µM) | IC50 (second compound 3.16 µM) | IC50 (second compound 10 µM)
81.5 nM: IC50 (second compound 0.1 µM)

O=C(c1ccc(F)c(F)c1Nc1ccc(I)cc1F)N1CC(O)([C@@H]2CCCCN2)C1 + C#Cc1c(F)ccc2cc(O)cc(-c3ncc4c(N5CC6CCC(C5)N6)nc(OCC56CCCN5CC(F)C6)nc4c3F)c12
3.62 nM: IC50 (second compound 1 µM)
274 nM: IC50 (second compound 0.1 µM)
< 3.16 nM: IC50 (second compound 3.16 µM) | IC50 (second compound 10 µM)
45.2 nM: IC50 (second compound 0.0316 µM)
inactive: viability, T/C [1] 70.1% | viability, T/C [2] 82.2% | viability, T/C [3] 52.4% | viability, T/C [4] 47.6% | viability, T/C [5] 41.5% | viability, T/C [6] 44.6% | viability, T/C [7] 81.9% | viability, T/C [8] 71.6% | viability, T/C [9] 65.8% | viability, T/C [10] 53.6% | viability, T/C [11] 49.1% | viability, T/C [12] 46.6% | viability, T/C [13] 75.4% | viability, T/C [14] 53.2% | viability, T/C [15] 46.7% | viability, T/C [16] 43.2% | viability, T/C [17] 34.9% | viability, T/C [18] 33.3% | viability, T/C [19] 50% | viability, T/C [20] 45.3% | viability, T/C [21] 31.3% | viability, T/C [22] 32.1% | viability, T/C [23] 26.9% | viability, T/C [24] 26.4% | viability, T/C [25] 38.2% | viability, T/C [26] 26.1% | viability, T/C [27] 24.6% | viability, T/C [28] 24% | viability, T/C [29] 19.9% | viability, T/C [30] 15.7% | viability, T/C [31] 19.8% | viability, T/C [32] 17.8% | viability, T/C [33] 17.9% | viability, T/C [34] 14% | viability, T/C [35] 12.2% | viability, T/C [36] 14.2%
19.8 nM: IC50 (second compound 0.316 µM)
